This note sets out measurements from patent publication US6664297B1, “Methods for inhibition and dissolution of amyloidoses by administration of compositions comprising 2,4-dinitrophenol” (priority 2000, dated 2003).

Data set [1] has as its target T1, Aβ1-42 (Homo sapiens, UniProt P05067).
T1 construct: purchased Bachem Inc; host or cells: synthetic peptide
The data set can be described thus: Disaggregation of aggregated Aβ1-42 followed by 90° light scattering. Type of data set: biochemical. The settings on record: for inhibition at 200 µM: read-out: % decrease in light scattering; for IC50: aggregated Aβ1-42, light scattering measured 1.5 hour after addition, 23° C., read-out: IC50 for disaggregation of Aβ. The procedure: (§1) Aβ peptides of different chain-lengths (Bachem Inc., Torrance, Calif., USA) were freshly dissolved from lyophilized powder in 50% (v/v) trifluoroethanol (TFE) in PBS. Aggregation was triggered by dilution of aliquots from the stock solution into PBS (resulting in ≦0.5% (v/v) residual TFE), and was followed as a function of time by light scattering measurements. Light scattering was measured in sealed cuvettes at 500 nm on ISS Inc. (Champaign, Ill., USA) PC1 or Hitachi F-4500 spectrofluorometers. […] Low temperature experiments were performed using a thermostated cell holder and flushing the cell compartment with N2 to avoid condensation. All results shown represent equilibrium light scattering values obtained for each sample.
Concentrated peptide stock solutions were prepared in 50% (v/v) trifluoroethanol. Aggregation was triggered by dilution in phosphate-buffered saline (PBS) and was followed by means of light-scattering measurements (FIGS. 1A, 1B, 1C), thioflavin T fluorescence (not shown) and electron microscopy (FIG. 2). Equilibrium light scattering values were used as an index of the extent of aggregation under different experimental conditions.
One class of compounds we tested were the nitrophenols. The disaggregation of Aβ1-42 by nitrophenols was determined. 3-nitrophenol (NP; O) or 2,4-dinitrophenol (DNP; □) were added to aggregated samples prepared as described above. Light scattering intensities were measured 1.5 hour after addition of the drugs. Symbols represent averages±S.D. from 3 experiments.
Further results for a series of aromatic compounds are shown in Table 1, at aromatic compound concentrations of 200 micromolar.

Data set [2] has as its target T1, Aβ1-42. Briefly: Transmission electron microscopy of Aβ1-42 fibril formation. It counts as biochemical. As to the method: Aggregated samples were also examined by transmission electron microscopy. In this case, Aβ (22 μM) was incubated in PBS in the absence or in the presence of nitrophenols, as indicated. After 48 hours, samples were stained with 1% uranyl acetate.
Confirmation that the light scattering intensity measurements were in fact related to the formation of amyloid fibrilar aggregates was made by transmission electron microscopy analysis using uranyl acetate staining.
An Aβ1-42 sample incubated for 2 days in the presence of 20 μM DNP is shown in FIG. 2C (Magnification: 52,500×).

For data set [3], the system named is hippocampal neurons. The data set can be described thus: Cell viability of hippocampal neuron cultures by trypan blue exclusion. Particulars: no Aβ.
Procedure: Hippocampi from 18-day-old rat embryos were dissected and cultured as previously described by Martins et al., Nat. Med., 3, 1376-82, 1997) with minor modifications. Cells were plated on glass coverslips previously coated with 1.5 μg/ml polyornithine (Sigma) in Basal Eagle's Medium (Gibco) enriched with 10% fetal calf serum (Hyclone) for the first 24 hours of culture. After that, proliferation of nonneuronal cells was inhibited with 10 μM arabinosyl cytoside and the serum concentration was lowered to 2%. Aβ1-42 (44 μM), in the absence or in the presence of nitrophenols, was added after 48 hours of culture and kept for three days. Control cultures consisting of neurons cultured in growth medium alone or in the presence of residual TFE (0.5% v/v) were also prepared. Daily observations were carried out during this period.
Cell viability in cultures incubated with or without Aβ (as described above) was assessed by trypan blue exclusion. Immediately before counting, the medium was removed, cultures were washed once with PBS and incubated for 5 min with 0.4% trypan blue. Randomly chosen fields were counted in a Zeiss Televal microscope. Percentages of live neurons are expressed relative to the total number of neurons observed in each field. Five independent fields were counted for each experimental condition (which were carried out in triplicate).
For data set [4], the system named is hippocampal neurons. The data set can be described thus: Aβ neurotoxicity in hippocampal neuron cultures, morphology by anti-Tau immunostaining. It counts as cell-based, rat. Particulars: Aβ1-42 44 μM, 72 hours. As to the method:
In order to evaluate the efficacy of the phenol derivatives, control assays were also performed in the absence of the aromatic or heteroaromatic compounds described herein.
Med., 3, 1376-82, 1997) with minor modifications. […] Daily observations were carried out during this period.
Aβ1-42 (44 μM) was added to the culture medium containing neurons and incubation was continued for 72 hours. […] Furthermore, the remaining cell bodies of Aβ-treated neurons were attached to the plate, but their neurites were retracted and thin, and sometimes detached from the plate.

Data set [5] has as its target T2, amyloid deposits (Homo sapiens, UniProt P05067).
T2 construct: purchased Bachem Inc; host or cells: synthetic peptide
Briefly: Rat model of cerebral Aβ deposition (intrahippocampal co-injection). Type of data set: in vivo. Particulars: 3 nmol Aβ1-42 co-injected with DNP 0.76 mM into hippocampus; 8 days; n=4, p=0.05. The procedure:
To evaluate the effects of nitrophenols as inhibitors of amyloid deposition in vivo, we used a rat model of cerebral Aβ deposition. Aβ was injected alone or in the presence of DNP into the left or right hippocampi of rats, respectively, and the areas occupied by amyloid deposits in either side were measured on consecutive sections stained with thioflavin S. The experimental protocol used was designed to minimize the influence of individual variability in animal response by injecting Aβ into one hemisphere and Aβ plus DNP into the other hemisphere for each individual rat.
Male adult Wistar rats (280-320 g) were anesthetized with chloropent (3.3 ml/kg) and placed into a stereotaxic frame. The left hippocampus (standard coordinates: A 5.0; L 2.0; H 6.8) was injected with 3 nmol of Aβ1-42 (from a previously diluted stock in 55 μl of PBS containing 9% DMSO). A volume of 1.5 μl was administered at a constant flow rate during a time period of 15 minutes. […] Images were analyzed with ScionImage to measure the areas occupied by amyloid aggregates.
FIG. 5A is a schematic diagram of the injection protocol and representative hippocampal sections visualized by Thioflavine-S staining or autofluorescence, as indicated. FIGS. 5B-5E show quantitative analysis of the area of amyloid deposits in consecutive hippocampal sections as described above. […]

Data set [6] has as its target T1, Aβ1-42. Briefly: Disaggregation of fibrillar Aβ1-42 by GdnHCl, light scattering. It counts as biochemical. The settings on record: Aβ1-42 10 μM, 1 hour incubation. The procedure: as §1
(§2) Stabilities of the fibrillar amyloid aggregates of peptides Aβ1-28, Aβ1-42 and Aβ1-43 in the presence of guanidine hydrochloride were compared. Measurements of the reduction in light scattering intensity as a function of the concentration of guanidine hydrochloride were used as an index of amyloid aggregate dissolution. Samples were incubated for 1 hour in the presence of the indicated concentrations of GdnHCl prior to measurements. Different symbols correspond to Aβ1-28 (□), Aβ1-42 (O) and Aβ1-43 (Δ), and represent averages±S.D. from 3-5 determinations.

The target in data set [7] is T3, Aβ1-28 (Homo sapiens, UniProt P05067).
T3 construct: purchased Bachem Inc; host or cells: synthetic peptide
The data set can be described thus: Disaggregation of fibrillar Aβ1-28 by GdnHCl, light scattering. Type of data set: biochemical. Particulars: Aβ1-28 10 μM, 1 hour incubation. As to the method: as §1, §2

Where [8] appears, read: aromatic compound concentration 200 micromolar.

Structures are written as SMILES. Where a name gives a salt, the structure may show the parent alone.

T1 sequence (P05067 672-713): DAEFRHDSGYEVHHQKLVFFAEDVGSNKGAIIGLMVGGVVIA
T2 sequence (P05067 672-713): as above
T3 sequence (P05067 672-699): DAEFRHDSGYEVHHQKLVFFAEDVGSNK

For `COc1ccc([N+](=O)[O-])cc1` [4-nitro-anisole], the inhibition at 200 µM in data set [1] (setting [8]) was found to be 49%.

As usually defined, the IC50 is the concentration that gives 50% inhibition. As for `O=[N+]([O-])c1cccc(O)c1` [3-nitrophenol], the “fibrils seen by electron microscopy” value in data set [2] (Aβ1-42 22 μM incubated 2 days in PBS with 100 μM NP) was “completely devoid of fibrils”. Further, the “effect of compound alone on survival of neurons in culture” value in data set [3] (100 μM NP) is “no effects”. Also, in data set [4] (100 μM NP), the “protection against Aβ neurotoxicity (neuron morphology)” value is “marked protection against neurotoxicity”. For the same molecule, the IC50 in data set [1] is approximately 80 µM. In addition, the inhibition at 200 µM in data set [1] (setting [8]) came out at 60%.

With `O=[N+]([O-])c1ccc(Br)cc1` [4-bromo-nitrobenzene], in data set [1] (setting [8]), the “% decrease in light scattering” value was determined as 37%.

`Nc1cc(Cl)ccc1O` [2-amino-4-chlorophenol]: the inhibition at 200 µM in data set [1] (setting [8]) amounted to 12%.

Take `Cc1ccc(O)cc1C` [3,4-dimethyl-phenol]: the inhibition at 200 µM in data set [1] (setting [8]) was 40%.

With `Oc1ccc(Br)cc1` [4-bromo-phenol], the inhibition at 200 µM in data set [1] (setting [8]) came to 25%.

`Nc1cc([N+](=O)[O-])ccc1O` [2-amino-4-nitrophenol]: in data set [1] (setting [8]), the inhibition at 200 µM was 92%.

As for `COc1ccc(N)cc1` [4-amino-anisole], the inhibition at 200 µM in data set [1] (setting [8]) stood at 48%.

As to `O=[N+]([O-])c1ccc(O)c([N+](=O)[O-])c1` [2,4-dinitrophenol], the “fibrils seen by electron microscopy” value in data set [2] (Aβ1-42 22 μM incubated 2 days in PBS with 20 μM DNP) is given as “completely devoid of fibrils”. Moreover, the “reduction in the volume of amyloid deposits relative to Aβ injected alone” value in data set [5] was 86±17%. Also, the “effect of compound alone on survival of neurons in culture” value in data set [3] (20 μM DNP) is on record as “no effects”. The “protection against Aβ neurotoxicity (neuron morphology)” value in data set [4] (20 μM DNP) is reported as “marked protection against neurotoxicity”. For the same molecule, the “light scattering from Aβ suspensions (disaggregation of fibrillar amyloid)” value in data set [1] (DNP 20 μM) is reported as “completely abolished light scattering”. Further, the IC50 in data set [1] is approximately 7 µM. For the same molecule, in data set [1] (setting [8]), the inhibition at 200 µM amounted to 100%.

`Nc1cccc(O)c1` [3-amino-phenol]: the inhibition at 200 µM in data set [1] (setting [8]) is 18%.

As for `N=C(N)N` [GdnHCl, guanidine hydrochloride], the “GdnHCl concentration for full disaggregation” value in data set [6] is 5 to 6 M. Besides, the “GdnHCl concentration for complete disaggregation” value in data set [7] came out at 3 M.

Turning to `CCc1ccc(O)cc1` [4-ethyl-phenol], in data set [1] (setting [8]), the inhibition at 200 µM was 0%.

In the case of `Oc1ccc(Cl)cc1` [4-chloro-phenol], in data set [1] (setting [8]), the inhibition at 200 µM turned out to be 20%.

For the molecule `Nc1ccc([N+](=O)[O-])cc1O` [2-amino-5-nitrophenol], in data set [1] (setting [8]), the inhibition at 200 µM was 44%.
